Test results taken from patent publication US6841682B2, “Heterocycles useful in the treatment of benign prostatic hyperplasia” (Janseen Pharmaceutica N.V., priority 1997, dated 2005).

Experiments:
[1] = target: T1, α1d-AR (Homo sapiens, UniProt P25100); test: radioligand ([125I]-HEAT) receptor binding assay, COS cell membranes, α1d-AR; conditions: Tables A-J, [125I]-HEAT 50 pM
T1 construct: expressed in transfected cells; host or cells: COS cells (pcDNA3 vector, DEAE-dextran transient transfection); membrane preparation
T1 sequence (P25100 1-572): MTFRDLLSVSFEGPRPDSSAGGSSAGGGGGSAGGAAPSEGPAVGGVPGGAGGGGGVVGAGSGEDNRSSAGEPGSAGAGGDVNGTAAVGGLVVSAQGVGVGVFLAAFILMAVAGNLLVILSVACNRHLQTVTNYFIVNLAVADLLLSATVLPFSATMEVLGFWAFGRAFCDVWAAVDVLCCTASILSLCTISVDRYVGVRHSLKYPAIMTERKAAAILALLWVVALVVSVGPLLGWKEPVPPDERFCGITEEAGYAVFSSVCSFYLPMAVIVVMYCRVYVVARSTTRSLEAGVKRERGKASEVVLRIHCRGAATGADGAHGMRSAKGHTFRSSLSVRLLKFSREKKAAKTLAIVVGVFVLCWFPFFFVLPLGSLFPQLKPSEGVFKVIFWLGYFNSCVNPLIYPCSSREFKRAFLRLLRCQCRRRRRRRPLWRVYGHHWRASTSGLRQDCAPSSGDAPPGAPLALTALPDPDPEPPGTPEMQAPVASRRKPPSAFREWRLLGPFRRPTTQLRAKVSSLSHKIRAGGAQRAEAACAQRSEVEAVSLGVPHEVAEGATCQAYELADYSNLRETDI
Source text: (§1) The first assay tested the ability of compounds of Formula I to bind to membrane bound receptors α1a-AR, α1b-AR and α1d-AR.
(§2) The DNA sequences of the three cloned human α1-AR subtypes have been published. […] We used published DNA sequence information to design-primers for use in RT-PCR amplification of each subtype to obtain cloned cDNAs. Human poly A+ RNA was obtained from commercially available sources and included hippocampus and prostate samples, sources which have been cited in the literature. For the primary screen a radio ligand binding assay was used which employed membrane preparations from cells expressing the individual cloned receptor cDNAs. Radiolabeled ligands with binding activity on all three subtypes (non-selective) are commercially available ([125I]-HEAT, [3H]-prazosin).
(§3) Each α1 receptor subtype was cloned from poly A+ RNA by the standard method of reverse transcription-polymerase chain reaction (RT-PCR). The following sources of polyA+ RNA were used for the cloning of the al receptor subtypes: α1a-AR, human hippocampus and prostate, α1b-AR, human hippocampus, α1d-AR, human hippocampus. The resulting cDNAs were cloned into the pcDNA3 mammalian expression vector (Invitrogen Corp., San Diego Calif.). Each DNA was sequenced for verification and to detect any possible mutations introduced during the amplification process. Any deviation in sequence from the published consensus for each receptor subtype was corrected by site-directed mutagenesis.
(§4) The three α1-AR subtypes (a, b, d) were transfected into COS cells using a standard DEAE-dextran procedure with a chloroquine shock. In this procedure, each tissue culture dish (100 mm) was inoculated with 3.5×10^6 cells and transfected with 10 μg of DNA. Approximately 72 hours post-transfection, the cells were harvested and COS membranes were prepared. Transfected COS cells from 25 plates (100 mm) were scraped and suspended in 15 mL of TE buffer (50 mM Tris-HCl, 5 mM EDTA, pH7.4). The suspension was disrupted with a homogenizer. It was then centrifuged at 1000×g for 10 minutes at 4° C. The supernatant was centrifuged at 34,500×g for 20 minutes at 4° C. The pellet was resuspended in 5 mL TNE buffer (50 mM Tris-HCl, 5 mM EDTA, 150 mM NaCl, pH7.4). The resulting membrane preparation was aliquoted and stored at −70° C. The protein concentration was determined following membrane solubilization with TritonX-100.
(§5) The ability of each compound to bind to each of the α1-AR subtypes was assessed in a receptor binding assay. [125I]-HEAT, a non-selective α1-AR ligand, was used as the radiolabeled ligand. Each well of a 96-well plate received: 140 μL TNE, 25 μL [125I]-HEAT diluted in TNE (50,000 cpm; final concentration 50 pM), 10 μL test compound diluted in DMSO (final concentration 1 pM-10 μM), […] COS cell membrane preparation expressing one of the three α1-AR subtypes (0.05-0.2 mg membrane protein). The plate was incubated for 1 hour at room temperature and the reaction mixtures were filtered through a Packard GF/C Unifilter filter plate. The filter plate was dried for 1 hour in a vacuum oven. Scintillation fluid ([…]) was added to each well, and the filter plate was counted in a Packard Topcount scintillation counter. Data was analyzed using GraphPad Prism software.
(§6) Tables A-J list the IC50 values expressed in nanomolar concentration for select compounds of the invention in all receptor subtypes.

[2] = target: T2, α1b-AR (Homo sapiens, UniProt P35368); test: radioligand ([125I]-HEAT) receptor binding assay, COS cell membranes, α1b-AR; conditions: Tables A-J; [125I]-HEAT 50 pM, COS membranes; read-out: α1b IC50
T2 construct: expressed in transfected cells; host or cells: COS cells (pcDNA3 vector, DEAE-dextran transient transfection); membrane preparation
T2 sequence (P35368 1-520): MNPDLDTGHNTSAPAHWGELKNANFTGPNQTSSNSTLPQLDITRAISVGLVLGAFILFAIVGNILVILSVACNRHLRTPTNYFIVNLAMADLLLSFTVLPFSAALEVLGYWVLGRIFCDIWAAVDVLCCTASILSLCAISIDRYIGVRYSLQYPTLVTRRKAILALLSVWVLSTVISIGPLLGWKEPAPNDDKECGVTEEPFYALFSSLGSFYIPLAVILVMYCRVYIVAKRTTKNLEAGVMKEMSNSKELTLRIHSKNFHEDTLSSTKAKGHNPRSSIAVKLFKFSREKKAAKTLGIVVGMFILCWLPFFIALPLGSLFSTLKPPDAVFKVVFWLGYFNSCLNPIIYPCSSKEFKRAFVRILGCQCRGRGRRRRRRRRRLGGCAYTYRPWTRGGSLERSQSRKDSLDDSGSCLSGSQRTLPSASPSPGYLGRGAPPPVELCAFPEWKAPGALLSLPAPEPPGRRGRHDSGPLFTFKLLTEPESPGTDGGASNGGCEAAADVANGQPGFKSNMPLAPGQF
Source text: as §1, §2, §3, §4, §5, §6

Row | IC50 [1] [µM] | IC50 [2] [µM] | Compound
1 | 0.177 | 3.92 | CC(C)Oc1ccccc1N1CCN(Cc2cc(CN3CCCCC3=O)n[nH]2)CC1 [Compound 3]
2 | 0.211 | 8.5 | CC(C)Oc1ccccc1N1CCN(Cc2ncc(CN3CCCCC3=O)s2)CC1 [Compound 16]
